pIC50: −log10 of the molar value.
Legend:
[1] = Phase 1 clinical trials; cited from earlier work
[2] = target: T1, MAT2A (Homo sapiens, UniProt P31153); assay: MAT2A inhibitory activity, colorimetric phosphate detection (PiColorLock) enzyme assay; type: biochemical; conditions: Test Condition 1 or 2 (not stated which per compound); absorbance at 630 nm
T1 construct: purchased BPS Bioscience (USA) 71401
In short: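 Compound preincubated 30 min at room temperature with enzyme, then reacted 1 h with ATP and Met; phosphate read colorimetrically at 630 nm. Condition 1: top 50 µM, 12 ng/µL enzyme, 100 µM ATP, 80 µM Met. Condition 2: top 1 µM, 4 ng/µL enzyme, 300 µM ATP, 150 µM Met. Tris pH 8.0 buffer; IC50 by 4-parameter fit.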

[3] = test system: HCT116 (MTAP del) cell line; assay: Cell proliferation inhibition in MTAP-deficient cancer cells, WST-1 assay; type: cell-based; conditions: Homo sapiens, HCT-116, 120 hours of drug treatment, maximum concentration 10 µM, read-out: HCT116 MTAP^-/- (IC50, cell proliferation inhibited by 50%)
In short: (§1)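 HCT116 MTAP-deleted and isogenic MTAP wild-type cells (1,000 cells/well, 10% FBS RPMI1640) attached 24 h, then treated with 4-fold dilutions from 10 µM for 120 hours. WST-1 added 2 hours, absorbance at 450 nm, normalized to DMSO control as 100%; IC50 from 4-parameter dose-response fit.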

[4] = test system: HCT116 (MTAP WT) cell line; assay: Cell proliferation inhibition in wild-type control cells, WST-1 assay; type: cell-based; conditions: Homo sapiens, HCT-116, 120 hours of drug treatment, maximum concentration 10 µM, read-out: HCT116 WT (IC50, cell proliferation inhibited by 50%)
In short: as §1

T1 sequence (P31153 whole entry): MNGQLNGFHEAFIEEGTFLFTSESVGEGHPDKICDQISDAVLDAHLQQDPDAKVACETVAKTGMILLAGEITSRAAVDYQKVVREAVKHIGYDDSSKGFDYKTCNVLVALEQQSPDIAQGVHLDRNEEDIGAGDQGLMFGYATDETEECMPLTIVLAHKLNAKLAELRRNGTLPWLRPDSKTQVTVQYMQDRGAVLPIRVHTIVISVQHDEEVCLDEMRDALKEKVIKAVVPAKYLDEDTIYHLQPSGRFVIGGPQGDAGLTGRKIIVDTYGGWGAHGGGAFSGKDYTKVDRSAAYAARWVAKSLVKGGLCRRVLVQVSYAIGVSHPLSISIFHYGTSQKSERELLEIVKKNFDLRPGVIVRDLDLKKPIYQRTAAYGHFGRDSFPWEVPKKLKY

pIC50 [2] | pIC50 [3] | pIC50 [4] | SMILES | hepatotoxicity [1]
– | – | – | COc1ccc(-c2c(Nc3ccccn3)[nH]c3c(C4=CCCCC4)c(-c4ccccc4)nn3c2=O)cc1 [AG-270] | hepatotoxicity associated with inhibition of UGT1A1
7.00 to 9.00 | 7.00 to 9.00 | < 5.00 | Cc1ncccc1-n1c(=O)c2nccn2c2c(F)cc(Cl)cc21 [Example 101, 7-chloro-9-fluoro-5-(2-methylpyridin-3-yl)imidazo[1,2-a]quinoxalin-4(5H)-one] | –
7.00 to 9.00 | 7.00 to 9.00 | < 5.00 | COc1cc(Cl)cc2c1n1ccnc1c(=O)n2-c1cccnc1C [Example 102, 7-chloro-9-methoxy-5-(2-methylpyridin-3-yl)imidazo[1,2-a]quinoxalin-4(5H)-one] | –
7.00 to 9.00 | 7.00 to 9.00 | < 5.00 | Cc1ncccc1-n1c(=O)c2nccn2c2c(OCC3CC3)cc(Cl)cc21 [Example 103, 7-chloro-9-(cyclopropylmethoxy)-5-(2-methylpyridin-3-yl)imidazo[1,2-a]quinoxalin-4(5H)-one] | –
7.00 to 9.00 | 7.00 to 9.00 | < 5.00 | CNc1cc(Cl)cc2c1n1ccnc1c(=O)n2-c1cccnc1C [Example 105, 7-chloro-9-(methylamino)-5-(2-methylpyridin-3-yl)imidazo[1,2-a]quinoxalin-4(5H)-one] | –
7.00 to 9.00 | < 5.00 | < 5.00 | COc1ncccc1-n1c(=O)c2nccn2c2cc(Cl)c(Br)cc21 [Example 107, 7-bromo-8-chloro-5-(2-methoxypyridin-3-yl)imidazo[1,2-a]quinoxalin-4(5H)-one] | –
7.00 to 9.00 | 6.00 to 7.00 | 5.00 to 6.00 | O=c1c2nccn2c2cc(Cl)c(Br)cc2n1-c1cccc2ncsc12 [Example 108, 5-(benzo[d]thiazol-7-yl)-7-bromo-8-chloroimidazo[1,2-a]quinoxalin-4(5H)-one] | –
7.00 to 9.00 | 6.00 to 7.00 | < 5.00 | O=c1c2nccn2c2cc(Cl)c(Br)cc2n1-c1cccc2[nH]ccc12 [Example 109, 7-bromo-8-chloro-5-(1H-indol-4-yl)imidazo[1,2-a]quinoxalin-4(5H)-one] | –
7.00 to 9.00 | 7.00 to 9.00 | < 5.00 | COc1cc(C(F)(F)F)cc2c1n1ccnc1c(=O)n2-c1cccnc1C [Example 113, 9-methoxy-5-(2-methylpyridin-3-yl)-7-(trifluoromethyl)imidazo[1,2-a]quinoxalin-4(5H)-one] | –

SMILES | pIC50 [2] | pIC50 [3] | pIC50 [4] | hepatotoxicity [1]
CCc1ncccc1-n1c(=O)c2nccn2c2cc(Cl)c(C(F)(F)F)cc21 [Example 110, 8-chloro-5-(2-ethylpyridin-3-yl)-7-(trifluoromethyl)imidazo[1,2-a]quinoxalin-4(5H)-one] | 7.00 to 9.00 | < 5.00 | < 5.00 | –
